One data set deals with serum insulin. In words: Serum insulin concentration and area under the concentration time curve after oral challenge (nasogastric) in healthy male volunteers. Type of data set: in vivo, human. The protocol:
(§1) Measurement of creatine levels in the plasma preferably involves removing venous blood from the dorsal surface of a heated hand immediately before and 20, 40, and 60 min after the ingestion of a supplement. In addition, urine may be collected before and on the day of ingestion of a supplement. Plasma and urine creatine may be measured using high performance liquid chromatography and serum insulin was measured using a radioimmunoassay technique, an example of which is described in U.S. Pat. No. 5,968,900, which is fully incorporated herein by reference.
Aim: The aim of this study was to identify a supplement that would optimize the augmentation of Cr retention after its supplementation, by increasing the insulinotropic effect, whilst consuming a lower carbohydrate load.
Study design: Randomized, double-blind, placebo controlled, cross-over design.
Volunteers: 7 healthy male volunteers. All volunteers were eligible to participate after satisfactory results from the medical screening.
(§2) Protocol: The volunteers were required to attend to the lab for 3 trials. Each consisted of an afternoon arm, and a morning arm. Each arm lasted for approximately 4 hours. The volunteers were asked to relax on a bed. A baseline blood sample was taken. Each solution was administered via a nasogastric tube (mean time of administration was approximately 7 minutes). Half-way through the administration, the stop clock was started. After the three hour protocol, a second solution was administered. The third solution was administered in the following morning arm of the trial. Each trial was separated by at least 12 days.
(§3) Each solution was administered via a nasogastric tube three times over 24 hours. A total amount of 15 g or Cr was administered.
Blood sampling: Blood samples were collected for three hours after administration of the solution. Eleven blood samples obtained (including baseline sample). For the first hour after administration of the solution, a blood sample was obtained at 15 minute intervals. During the second and third hour of sampling, the intervals were increased to 20 minutes. Approximately 3 ml of blood was transferred to a lithium heparin containing tube and a further 3 ml were allowed to clot for plasma Cr and creatinine (Crn), and serum insulin analysis respectively.
Statistical analysis: A two-way repeated measure ANOVA statistical test was used. Significance was set at p<0.05. When a significant difference was observed, Fisher's post hoc analysis was performed in order to locate the difference. All individual results are included in the appendix.

The conditions of data set [1]: human, in vivo. The protocol: as §1, §2, §3
Blood sampling: Blood samples were collected for three hours after administration of the solution. […]

The nature of data set [2]: Urinary creatine excretion (24 h collections: 0-24, 24-48, 0-48 h) after administration of the solutions. It counts as in vivo, human. The note with it: p<0.05. As to the method: as §1
Urinary Creatine Content:
Three 24 h hour urinary collections were obtained from each volunteer for each arm of the study. The first collection (baseline) was completed prior to administration of the solution. The second collection (0-24 h) was initiated immediately after the administration of the first solution, until 24 h post administration. […] The volume of the urine excreted was recorded and a 5 ml sample was frozen at −20° C. until analysis. The samples were analyzed for Cr and Crn.
To calculate the total creatine (TCr) the Cr and Crn were added together. The TCr increase was calculated by subtracting the baseline TCr from the 0-24 h excretion and/or the 24-48 h excretion. The 0-48 h content was calculated by adding the 0-24 h TCr with the 24-48 h TCr increase in excretion. […]

The test system of data set [3] is skeletal muscle total creatine. The conditions noted are these: cited from earlier work.

“And” between values parts separate entries of the source, which are not always exact repeats. Identical values can stand only once.

`CN(CC(=O)O)C(=N)N` [C, creatine]: the “serum insulin concentration compared to PAC” value with serum insulin (FIG. 1, first oral challenge, from 15-140 min) is given as “significantly lower”. In the data set with serum insulin (FIG. 1, first oral challenge, from 15-160 min), the “serum insulin concentration compared to CHO” value is “significantly lower”. Besides, the “serum insulin concentration compared to CHO and PAC” value in the data set on serum insulin (FIG. 2, third oral challenge, from 15-160 min) is on record as “significantly lower”. The “serum insulin AUC compared to CHO and PAC” value with serum insulin (FIG. 3, 80 min following the first oral challenge, p=0.02) is recorded as “significantly lower”; in the data set with serum insulin (FIG. 4, 180 min following the first oral challenge, p=0.015) it was “significantly lower”; in the data set with serum insulin (FIG. 5, 80 min following the third oral challenge, p<0.001), “significantly lower”; with serum insulin (FIG. 6, 180 min following the first oral challenge (so in the source), p<0.001) it was “significantly lower”. Besides, the “insulin area under the time curve response” value with serum insulin (first oral challenge, 0-80 min (as headed), individual subject) is −235 mU/l/min and −127 mU/l/min and −112 mU/l/min and −166 mU/l/min and −146 mU/l/min and −714 mU/l/min and −566 mU/l/min; in the data set with serum insulin (first oral challenge, 0-80 min (as headed), mean of 7 subjects) it was −295 mU/l/min; in the data set with serum insulin (first oral challenge, 0-180 min (as headed), individual subject), −32 mU/l/min and −48 mU/l/min and −50 mU/l/min and 21 mU/l/min and −11 mU/l/min and −299 mU/l/min and −186 mU/l/min; in the data set on serum insulin (first oral challenge, 0-180 min (as headed), mean of 7 subjects), −86 mU/l/min; with serum insulin (third oral challenge, 0-80 min, individual subject), 10 mU/l/min (2×) and −7 mU/l/min and −23 mU/l/min and 132 mU/l/min and −34 mU/l/min and −18 mU/l/min; in the data set on serum insulin (third oral challenge, 0-80 min, mean of 7 subjects), 10 mU/l/min. Also, the “insulin area under the time curve response” value in the data set on serum insulin (third oral challenge, 0-180 min, individual subject) was 274 mU/l/min (2×) and −63 mU/l/min and −109 mU/l/min and 195 mU/l/min and 1406 mU/l/min and −99 mU/l/min; in the data set on serum insulin (third oral challenge, 0-180 min, mean of 7 subjects), 268 mU/l/min. Also, the serum insulin concentration with serum insulin (first oral challenge, 45 min, individual subject) is 9.02 mU/l and 7.85 mU/l and 9.58 mU/l and 10.16 mU/l and 9.61 mU/l and 9.34 mU/l and 11.85 mU/l; with serum insulin (first oral challenge, 45 min, mean of 7 subjects) it was 9.63 mU/l; with serum insulin (first oral challenge, 60 min, individual subject), 9.17 mU/l and 7.54 mU/l and 9.74 mU/l and 8.51 mU/l; with serum insulin (third oral challenge, 0 min, individual subject) it was 8.91 mU/l (2×) and 8.31 mU/l and 10.38 mU/l and 9.64 mU/l and 10.31 mU/l and 8.65 mU/l; in the data set on serum insulin (third oral challenge, 0 min, mean of 7 subjects), 9.30 mU/l; in the data set with serum insulin (third oral challenge, 15 min, individual subject) it was 8.94 mU/l (2×) and 7.78 mU/l and 10.23 mU/l and 9.84 mU/l and 10.29 mU/l and 11.08 mU/l. The serum insulin concentration with serum insulin (third oral challenge, 15 min, mean of 7 subjects) is 9.59 mU/l; in the data set on serum insulin (third oral challenge, 30 min, individual subject) it was 9.44 mU/l (2×) and 7.90 mU/l and 10.92 mU/l and 10.89 mU/l and 9.80 mU/l and 11.61 mU/l; with serum insulin (third oral challenge, 30 min, mean of 7 subjects), 10.00 mU/l; in the data set with serum insulin (third oral challenge, 45 min, individual subject), 8.87 mU/l (2×) and 7.24 mU/l and 9.56 mU/l and 9.07 mU/l and 10.07 mU/l and 9.32 mU/l; in the data set with serum insulin (third oral challenge, 45 min, mean of 7 subjects) it was 9.00 mU/l; in the data set on serum insulin (third oral challenge, 60 min, individual subject) it was 8.92 mU/l (2×) and 7.99 mU/l and 10.03 mU/l and 8.61 mU/l and 9.69 mU/l and 10.81 mU/l. The serum insulin concentration with serum insulin (third oral challenge, 60 min, mean of 7 subjects) was 9.28 mU/l; in the data set on serum insulin (third oral challenge, 80 min, individual subject), 9.06 mU/l (2×) and 8.54 mU/l and 9.79 mU/l and 9.45 mU/l and 10.22 mU/l and 8.93 mU/l; with serum insulin (third oral challenge, 80 min, mean of 7 subjects), 9.29 mU/l; in the data set on serum insulin (third oral challenge, 100 min, individual subject), 8.54 mU/l (2×) and 8.56 mU/l and 9.59 mU/l (2×) and 9.34 mU/l and 9.38 mU/l; in the data set with serum insulin (third oral challenge, 100 min, mean of 7 subjects), 9.08 mU/l; with serum insulin (third oral challenge, 120 min, individual subject), 8.76 mU/l (2×) and 8.20 mU/l and 10.07 mU/l and 8.48 mU/l and 10.27 mU/l and 9.10 mU/l. The serum insulin concentration is 9.09 mU/l with serum insulin (third oral challenge, 120 min, mean of 7 subjects); 8.29 mU/l (2×) and 8.44 mU/l and 8.57 mU/l and 8.55 mU/l and 8.56 mU/l and 9.20 mU/l in the data set on serum insulin (third oral challenge, 140 min, individual subject); 8.56 mU/l with serum insulin (third oral challenge, 140 min, mean of 7 subjects); 8.69 mU/l (2×) and 8.34 mU/l and 8.66 mU/l and 10.01 mU/l and 9.02 mU/l and 9.73 mU/l with serum insulin (third oral challenge, 160 min, individual subject); 9.02 mU/l with serum insulin (third oral challenge, 160 min, mean of 7 subjects); 8.58 mU/l (3×) and 8.61 mU/l and 8.56 mU/l and 9.43 mU/l and 9.04 mU/l in the data set with serum insulin (third oral challenge, 180 min, individual subject). Also, the serum insulin concentration in the data set on serum insulin (third oral challenge, 180 min, mean of 7 subjects) stood at 8.77 mU/l. Further, the “plasma creatine AUC compared to CHO and PAC” value in data set [1] is recorded as “significantly greater”. Further, the “urinary creatine content compared to CHO and PAC” value was “significantly greater” in data set [2] (FIG. 11, 0-24 h) and “significantly greater” in data set [2] (FIG. 13, 0-48 h following supplementation).

With `CN(CC(=O)O)C(=N)N` [creatine, N-methyl-N-guanyl glycine], the “increase of muscle total creatine content, on average” value in data set [3] (20 g/day for 5 days) was 20%. Besides, the “increase in human skeletal muscle total creatine (phosphocreatine and free creatine) stores” value in data set [3] (dietary creatine supplementation) is 20-50%.

`CN(CC(=O)O)C(=N)N` [carbohydrate free creatine, creatine]: in data set [3] (5 g creatine four times a day for 5 days), the “increase of total muscle creatine” value is given as “about 20 mmol/kg dm”.
